Patent publication US10765114B2, “4-amino-6-(pyridyl and 2-substitutedphenyl)-picolinates and 6-amino-2-(pyridyl and 2-substitutedphenyl)-pyrimidine-4-carboxylates and their use as herbicides” (Dow AgroSciences LLC, priority 2013, dated 2020)
Read-outs that look alike come from different tables or passages of the source.

Tests used:
[1] = system: Key Grass and Sedge Weeds as well as Grass Crops; assay: Post-Emergent Test II (Table 6); type: in vivo; details: post-emergence, 336 h, 14 days after application; for pest or weed control at 70 g/ha: 70 g ai/ha; for pest or weed control at 140 g/ha: 140 g ai/ha
Outline: (§1)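 Seedlings are raised 7-21 days in Metro-Mix 360 (pH 6.0-6.8) under greenhouse conditions, then sprayed at the first or second true leaf stage. Application is 187 L/ha, with serial rates down to 1/16× of the highest. Plants are subirrigated, and percent injury is rated visually after 14 days.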

[2] = system: Key Broadleaf Weed and Crop Species; assay: Post-Emergent Test II (Table 5); type: in vivo; details: post-emergence, 336 h; for pest or weed control at 70 g/ha: application rate 70 (kg ai/ha; footnote: g ai/ha); for pest or weed control at 140 g/ha: application rate 140 (kg ai/ha; footnote: g ai/ha)
Outline: as §1

[3] = CYPSS, read-out: Visual Growth Reduction (%) 14 Days After Application CYPSS
[4] = DIGSA: crabgrass (Digitaria sanguinalis), read-out: Visual Growth Reduction (%) 14 Days After Application DIGSA
[5] = ECHSS, read-out: Visual Growth Reduction (%) 14 Days After Application ECHSS
[6] = ORYSS (crop), read-out: Visual Growth Reduction (%) 14 Days After Application ORYSS
[7] = SETFA: giant foxtail (Setaria faberi), read-out: Visual Growth Reduction (%) 14 Days After Application SETFA
[8] = SORVU: grain sorghum (Sorghum vulgare), read-out: Visual Growth Reduction (%) 14 Days After Application SORVU
[9] = TRZSS (crop), read-out: Visual Growth Reduction (%) 14 Days After Application TRZSS
[10] = ZEAMX: maize, corn (Zea mays), read-out: Visual Growth Reduction (%) 14 Days After Application ZEAMX
[11] = Abutilon theophrasti, ABUTH: velvetleaf (Abutilon theophrasti), read-out: Visual Growth Reduction (%) 14 Days After Application ABUTH
[12] = Amaranthus retroflexus, AMARE: redroot pigweed (Amaranthus retroflexus), read-out: Visual Growth Reduction (%) 14 Days After Application AMARE
[13] = Brassica napus, BRSSS: oilseed rape, canola (Brassica napus), read-out: Visual Growth Reduction (%) 14 Days After Application BRSSS
[14] = Chenopodium album, CHEAL: lambsquarters (Chenopodium album), read-out: Visual Growth Reduction (%) 14 Days After Application CHEAL
[15] = Euphorbia heterophylla, EPHHL: wild poinsettia (Euphorbia heterophylla), read-out: Visual Growth Reduction (%) 14 Days After Application EPHHL
[16] = Helianthus annuus, HELAN: sunflower (Helianthus annuus), read-out: Visual Growth Reduction (%) 14 Days After Application HELAN
[17] = Viola tricolor, VIOTR: wild pansy (Viola tricolor), read-out: Visual Growth Reduction (%) 14 Days After Application VIOTR

Nc1c(F)c(-c2ccc(I)nc2)nc(C(=O)O)c1Cl [Compound 81]
pest or weed control at 70 g/ha [1, 3]: 95 to 100%
pest or weed control at 140 g/ha [1, 3]: 95 to 100%
pest or weed control at 70 g/ha [1, 4]: 75 to 84%
pest or weed control at 140 g/ha [1, 4]: 75 to 84%
pest or weed control at 70 g/ha [1, 5]: 85 to 94%
pest or weed control at 140 g/ha [1, 5]: 85 to 94%
pest or weed control at 70 g/ha [1, 6]: 45 to 59%
pest or weed control at 140 g/ha [1, 6]: 60 to 74%
pest or weed control at 70 g/ha [1, 7]: 75 to 84%
pest or weed control at 140 g/ha [1, 7]: 85 to 94%
pest or weed control at 70 g/ha [1, 8]: 45 to 59%
pest or weed control at 140 g/ha [1, 8]: 45 to 59%
pest or weed control at 70 g/ha [1, 9]: 60 to 74%
pest or weed control at 140 g/ha [1, 9]: 60 to 74%
pest or weed control at 70 g/ha [1, 10]: 30 to 44%
pest or weed control at 140 g/ha [1, 10]: 45 to 59%
pest or weed control at 70 g/ha [2, 11]: 85 to 94%
pest or weed control at 140 g/ha [2, 11]: 85 to 94%
pest or weed control at 70 g/ha [2, 12]: 95 to 100%
pest or weed control at 140 g/ha [2, 12]: 95 to 100%
pest or weed control at 70 g/ha [2, 13]: 85 to 94%
pest or weed control at 140 g/ha [2, 13]: 85 to 94%
pest or weed control at 70 g/ha [2, 14]: 95 to 100%
pest or weed control at 140 g/ha [2, 14]: 95 to 100%
pest or weed control at 70 g/ha [2, 15]: 95 to 100%
pest or weed control at 140 g/ha [2, 15]: 95 to 100%
pest or weed control at 70 g/ha [2, 16]: 75 to 84%
pest or weed control at 140 g/ha [2, 16]: 85 to 94%
pest or weed control at 70 g/ha [2, 17]: 95 to 100%
pest or weed control at 140 g/ha [2, 17]: 95 to 100%

COC(=O)c1nc(-c2ccc(Cl)nc2F)cc(N)c1Cl [Compound 17, methyl 4-amino-5,6′-dichloro-2′-fluoro-[2,3′-bipyridine]-6-carboxylate]
pest or weed control at 70 g/ha [1, 3]: 60 to 74%
pest or weed control at 140 g/ha [1, 3]: 75 to 84%
pest or weed control at 70 g/ha [1, 4]: 0 to 29%
pest or weed control at 140 g/ha [1, 4]: 0 to 29%
pest or weed control at 70 g/ha [1, 5]: 60 to 74%
pest or weed control at 140 g/ha [1, 5]: 85 to 94%
pest or weed control at 70 g/ha [1, 6]: 0 to 29%
pest or weed control at 140 g/ha [1, 6]: 0 to 29%
pest or weed control at 70 g/ha [1, 7]: 0 to 29%
pest or weed control at 140 g/ha [1, 7]: 0 to 29%
pest or weed control at 70 g/ha [1, 8]: 0 to 29%
pest or weed control at 140 g/ha [1, 8]: 30 to 44%
pest or weed control at 70 g/ha [1, 9]: 0 to 29%
pest or weed control at 140 g/ha [1, 9]: 0 to 29%
pest or weed control at 70 g/ha [1, 10]: 0 to 29%
pest or weed control at 140 g/ha [1, 10]: 30 to 44%
pest or weed control at 70 g/ha [2, 11]: 95 to 100%
pest or weed control at 140 g/ha [2, 11]: 95 to 100%
pest or weed control at 70 g/ha [2, 12]: 95 to 100%
pest or weed control at 140 g/ha [2, 12]: 95 to 100%
pest or weed control at 70 g/ha [2, 13]: 0 to 29%
pest or weed control at 140 g/ha [2, 13]: 30 to 44%
pest or weed control at 70 g/ha [2, 14]: 95 to 100%
pest or weed control at 140 g/ha [2, 14]: 95 to 100%
pest or weed control at 70 g/ha [2, 15]: 0 to 29%
pest or weed control at 140 g/ha [2, 15]: 45 to 59%
pest or weed control at 70 g/ha [2, 16]: 60 to 74%
pest or weed control at 140 g/ha [2, 16]: 75 to 84%
pest or weed control at 70 g/ha [2, 17]: 60 to 74%
pest or weed control at 140 g/ha [2, 17]: 60 to 74%

COC(=O)c1nc(-c2ccc(Cl)c(F)c2C)nc(N)c1OC [Compound 63]
pest or weed control at 70 g/ha [1, 3]: 0 to 29%
pest or weed control at 140 g/ha [1, 3]: 0 to 29%
pest or weed control at 70 g/ha [1, 4]: 0 to 29%
pest or weed control at 140 g/ha [1, 4]: 0 to 29%
pest or weed control at 70 g/ha [1, 5]: 0 to 29%
pest or weed control at 140 g/ha [1, 5]: 0 to 29%
pest or weed control at 70 g/ha [1, 6]: 0 to 29%
pest or weed control at 140 g/ha [1, 6]: 0 to 29%
pest or weed control at 70 g/ha [1, 7]: 0 to 29%
pest or weed control at 140 g/ha [1, 7]: 0 to 29%
pest or weed control at 70 g/ha [1, 8]: 0 to 29%
pest or weed control at 140 g/ha [1, 8]: 0 to 29%
pest or weed control at 70 g/ha [1, 9]: 0 to 29%
pest or weed control at 140 g/ha [1, 9]: 0 to 29%
pest or weed control at 70 g/ha [1, 10]: 0 to 29%
pest or weed control at 140 g/ha [1, 10]: 0 to 29%
pest or weed control at 70 g/ha [2, 11]: 0 to 29%
pest or weed control at 140 g/ha [2, 11]: 0 to 29%
pest or weed control at 70 g/ha [2, 12]: 85 to 94%
pest or weed control at 140 g/ha [2, 12]: 85 to 94%
pest or weed control at 70 g/ha [2, 13]: 30 to 44%
pest or weed control at 140 g/ha [2, 13]: 45 to 59%
pest or weed control at 70 g/ha [2, 14]: 85 to 94%
pest or weed control at 140 g/ha [2, 14]: 85 to 94%
pest or weed control at 70 g/ha [2, 15]: 0 to 29%
pest or weed control at 140 g/ha [2, 15]: 0 to 29%
pest or weed control at 70 g/ha [2, 16]: 75 to 84%
pest or weed control at 140 g/ha [2, 16]: 75 to 84%
pest or weed control at 70 g/ha [2, 17]: 0 to 29%
pest or weed control at 140 g/ha [2, 17]: 0 to 29%

C=Cc1c(-c2cc(N)c(Cl)c(C(=O)OC)n2)ccc(Cl)c1F [Compound 79, methyl 4-amino-3-chloro-6-(4-chloro-3-fluoro-2-vinylphenyl)picolinate]
pest or weed control at 70 g/ha [1, 3]: 95 to 100%
pest or weed control at 140 g/ha [1, 3]: 95 to 100%
pest or weed control at 70 g/ha [1, 4]: 0 to 29%
pest or weed control at 140 g/ha [1, 4]: 0 to 29%
pest or weed control at 70 g/ha [1, 5]: 0 to 29%
pest or weed control at 140 g/ha [1, 5]: 0 to 29%
pest or weed control at 70 g/ha [1, 6]: 0 to 29%
pest or weed control at 140 g/ha [1, 6]: 0 to 29%
pest or weed control at 70 g/ha [1, 7]: 0 to 29%
pest or weed control at 140 g/ha [1, 7]: 0 to 29%
pest or weed control at 70 g/ha [1, 8]: 0 to 29%
pest or weed control at 140 g/ha [1, 8]: 30 to 44%
pest or weed control at 70 g/ha [1, 9]: 0 to 29%
pest or weed control at 140 g/ha [1, 9]: 0 to 29%
pest or weed control at 70 g/ha [1, 10]: 0 to 29%
pest or weed control at 140 g/ha [1, 10]: 0 to 29%
pest or weed control at 70 g/ha [2, 11]: 95 to 100%
pest or weed control at 140 g/ha [2, 11]: 0 to 29%
pest or weed control at 70 g/ha [2, 12]: 95 to 100%
pest or weed control at 140 g/ha [2, 12]: 95 to 100%
pest or weed control at 70 g/ha [2, 13]: 95 to 100%
pest or weed control at 140 g/ha [2, 13]: 95 to 100%
pest or weed control at 70 g/ha [2, 14]: 95 to 100%
pest or weed control at 140 g/ha [2, 14]: 95 to 100%
pest or weed control at 70 g/ha [2, 15]: 0 to 29%
pest or weed control at 140 g/ha [2, 15]: 0 to 29%
pest or weed control at 70 g/ha [2, 16]: 85 to 94%
pest or weed control at 140 g/ha [2, 16]: 85 to 94%
pest or weed control at 70 g/ha [2, 17]: 0 to 29%
pest or weed control at 140 g/ha [2, 17]: 0 to 29%
